Test results reported in patent publication US9434724B2, “Quinuclidines for modulating alpha 7 activity” (priority 2014, dated 2016).
Structures can show the parent of a compound that is named as a salt. Where two headings read alike, the source gives them in different places.

Legend:
CYP1A2 = CYP1A2 (Homo sapiens (Human), UniProt P05177); experiment: Cytochrome P450 inhibition in human liver microsomes, CYP1A2
CYP2C19 = CYP2C19 (Homo sapiens (Human), UniProt P33261); experiment: Cytochrome P450 inhibition in human liver microsomes, CYP2C19
CYP2C9 = CYP2C9 (Homo sapiens (Human), UniProt P11712); experiment: Cytochrome P450 inhibition in human liver microsomes, CYP2C9
Human plasma stability = type: in vitro ADME; details: plasma
Protocol: Protocol 1: Studies were carried out in human plasma. All plasma was obtained from Bioreclamation and collected on sodium heparin. Plasma was adjusted to pH 7.4. A DMSO stock was first prepared for the test compound. An aliquot of the DMSO solution was dosed into 1 mL of plasma, which had been pre-warmed to 37° C., at a final test compound concentration of 1 μM. The vials were kept in a benchtop Thermomixer® for the duration of the experiment. Aliquots (100 μL) were taken at each time point (0, 15, 30, 60, and 120 minutes) and added to 96-well plates which had been pre-filled with 300 μL of acetonitrile. Samples were stored at 4° C. until the end of the experiment. After the final time point was sampled, the plate was mixed and then centrifuged at 3,000 rpm for 10 minutes. Aliquots of the supernatant were removed, diluted 1:1 into distilled water, and analyzed by LC-MS/MS. The peak area response ratio to internal standard (PARR) of the compound at 15, 30, 60 and 120 minutes was compared to the PARR at time 0 to determine the percent of test compound remaining at each time point. Half-lives were calculated using GraphPad software, fitting to a single-phase exponential decay equation.
Protocol 2: Studies were carried out in plasma. Plasma was prepared under approval of IRB and IACUC on sodium heparin. The pH of plasma was monitored and used within the range of pH 7.4 to pH 8.0. DMSO stocks were prepared for the test compounds. Aliquots of the DMSO solutions were diluted to 0.05 mM by 0.05 mM Sodium phosphate buffer with 0.5% BSA. Then 10 μL of 0.05 mM solutions were dosed into 90 μL of plasma in duplicates (n=2), which had been pre-warmed to 37° C., at a final test compound concentration of 5 μM. The plates were kept in a 37° C. water bath for the duration of the experiment. At each time point (0, 5, 15, 30, 45, 60, and 120 minutes), 400 μL of acetonitrile was added into corresponding wells. After the final time point was sampled, the plates were shaken at the vibrator (IKA, MTS 2/4) for 10 min (600 rpm/min) and then centrifuged at 5594 g for 15 min (Thermo Multifuge×3R). Aliquots of the supernatant were removed, diluted 1:1 into distilled water, and analyzed by LC-MS/MS. The peak area response ratio to internal standard (PARR) of the compounds at 5, 15, 30, 45, 60, and 120 minutes was compared to the PARR at time 0 to determine the percent of test compound remaining at each time point. Half-lives were calculated using Excel software, fitting to a single-phase exponential decay equation.

[1] = Metabolic stability assay in rat liver microsomes (RLM); type: in vitro ADME; details: 1 μM
Protocol: (§1) Protocol 1: Studies were carried out in human and rat liver microsomes (“HLM” and “RLM,” respectively). Human and rat liver microsomes were purchased from BD Gentest. DMSO stocks were prepared for the test compounds. Aliquots of the DMSO solutions were diluted to 0.5 mM by acetonitrile, then further diluted by liver microsomes/buffer to 1.5 μM. 30 μL of 1.5 μM solutions were mixed with 15 μL of 6 mM NADPH, which had been pre-warmed to 37° C., at a final test compound concentration of 1 μM. The plates were kept in a 37° C. water bath for the duration of the experiment. At each time point (0, 5, 15, 30, 45 minutes), 135 μL of acetonitrile was added into corresponding wells. After the final time point was sampled, the plates were shaken at a vibrator (IKA, MTS 2/4) for 10 min (600 rpm/min) and then centrifuged at 5594 g for 15 min (Thermo Multifuge×3R). Aliquots of the supernatant were removed, diluted 1:1 into distilled water, and analyzed by LC-MS/MS. The peak area response ratio to internal standard (PARR) of the compounds at 5, 15, 30, 45 minutes was compared to the PARR at time 0 to determine the percent of test compound remaining at each time point. Half-lives were calculated using Excel software, fitting to a single-phase exponential decay equation.
(§2) Protocol 2: Studies were carried out in human and rat liver microsomes. Buffer solutions were prepared as follows: Buffer A: 1.0 L of 0.1 M monobasic Potassium Phosphate buffer containing 1.0 mM EDTA; Buffer B: 1.0 L of 0.1 M Dibasic Potassium Phosphate buffer containing 1.0 mM EDTA; Buffer C: 0.1 M Potassium Phosphate buffer, 1.0 mM EDTA, pH 7.4 by titrating 700 mL of buffer B with buffer A while monitoring with a pH meter.
(§3) Reference compound (Ketanserin) and test compound spiking solutions were prepared as follows: 500 μM spiking solution: add 10 μL of 10 mM DMSO stock solution into 190 μL ACN; 1.5 μM spiking solution in microsomes (0.75 mg/mL): add 1.5 μL of 500 μM spiking solution and 18.75 μL of 20 mg/mL liver microsomes into 479.75 μL of Buffer C.
(§4) NADPH stock solution (6 mM) was prepared by dissolving NADPH into buffer C.
(§5) Assay procedure: 30 μL of 1.5 μM spiking solution containing 0.75 mg/mL microsomes solution was dispensed to the wells designated for […]. The plate was pre-incubated at 37° C. for 10 minutes. 15 μL of NADPH stock solution (6 mM) was added to the wells designated as Time 45, and the timer was started. At 30 mM, 15 mM, and 5 mM, 15 μL NADPH stock solution (6 mM) was added to the wells, respectively. At the end of incubation (0 mM), 135 μL of ACN containing IS was added to all the wells. Then 15 μL of NADPH stock solution (6 mM) was added to the wells designated as Time 0. After quenching, the reaction mixtures were centrifuged at 3220 g for […]. Following centrifugation, 50 μL of the supernatant was transferred from each well into a 96-well sample plate containing 50 μL of ultra-pure water (Millipore) for LC/MS analysis. The peak area response (PARR) ratio to internal standard of the compounds at 5, 15, 30, and 45 minutes was compared to the PARR at time 0 to determine the percent of test compound remaining at each time point. Half-lives were calculated using Excel software, fitting to a single-phase exponential decay equation.

[2] = Metabolic stability assay in human liver microsomes (HLM); type: in vitro ADME; details: 1 μM
Protocol: as §1, §2, §3, §4, §5

CYP3A4 = CYP3A4 (Homo sapiens (Human), UniProt P08684); experiment: Cytochrome P450 inhibition in human liver microsomes, CYP3A4
[3] = target: T1, rat brain nicotinic receptor (α7 NAChR) (Rattus norvegicus (Rat), UniProt Q05941); type: binding; details: Protocol No. 2; [3H] α-Bungarotoxin 0.4 nM, rat brain P2 membrane
[4] = target: T1, rat brain nicotinic receptor (α7 NAChR); type: binding
[5] = read-out: 2C19 IC50, Protocol 1
[6] = read-out: 3A4 IC50 (Midazolam), substrate midazolam, Protocol 1
[7] = read-out: 3A4 IC50 (Testosterone), substrate testosterone, Protocol 1
[8] = read-out: 2C19 IC50, Protocol 2

Chain of CYP1A2 (P05177 whole entry): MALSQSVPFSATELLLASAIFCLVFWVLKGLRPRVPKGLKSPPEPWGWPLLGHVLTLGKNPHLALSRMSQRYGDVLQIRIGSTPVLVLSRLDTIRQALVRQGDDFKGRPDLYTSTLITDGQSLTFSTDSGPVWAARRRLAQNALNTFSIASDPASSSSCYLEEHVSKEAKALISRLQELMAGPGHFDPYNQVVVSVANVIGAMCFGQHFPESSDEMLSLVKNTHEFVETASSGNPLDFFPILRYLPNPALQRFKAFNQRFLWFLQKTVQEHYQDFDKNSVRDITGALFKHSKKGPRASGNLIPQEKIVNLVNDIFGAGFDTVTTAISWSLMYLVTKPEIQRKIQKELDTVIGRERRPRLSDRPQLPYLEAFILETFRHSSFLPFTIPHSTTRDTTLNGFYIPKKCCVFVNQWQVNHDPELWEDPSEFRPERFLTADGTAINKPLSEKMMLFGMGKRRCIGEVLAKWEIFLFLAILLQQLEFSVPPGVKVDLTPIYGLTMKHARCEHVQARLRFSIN
Chain of CYP2C9 (P11712 whole entry): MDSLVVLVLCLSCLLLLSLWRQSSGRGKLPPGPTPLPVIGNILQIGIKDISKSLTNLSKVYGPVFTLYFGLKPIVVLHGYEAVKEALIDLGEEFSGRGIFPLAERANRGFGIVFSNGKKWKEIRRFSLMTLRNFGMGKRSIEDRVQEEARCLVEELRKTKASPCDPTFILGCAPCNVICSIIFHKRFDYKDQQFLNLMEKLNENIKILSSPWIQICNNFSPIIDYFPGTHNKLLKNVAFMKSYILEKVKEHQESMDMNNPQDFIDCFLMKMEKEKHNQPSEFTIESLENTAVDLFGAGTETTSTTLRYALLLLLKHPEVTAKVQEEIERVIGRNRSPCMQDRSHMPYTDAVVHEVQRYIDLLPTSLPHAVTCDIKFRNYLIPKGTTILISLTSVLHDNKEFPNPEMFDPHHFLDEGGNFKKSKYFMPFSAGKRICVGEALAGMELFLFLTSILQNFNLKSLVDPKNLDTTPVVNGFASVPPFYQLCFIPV
Chain of CYP2C19 (P33261 whole entry): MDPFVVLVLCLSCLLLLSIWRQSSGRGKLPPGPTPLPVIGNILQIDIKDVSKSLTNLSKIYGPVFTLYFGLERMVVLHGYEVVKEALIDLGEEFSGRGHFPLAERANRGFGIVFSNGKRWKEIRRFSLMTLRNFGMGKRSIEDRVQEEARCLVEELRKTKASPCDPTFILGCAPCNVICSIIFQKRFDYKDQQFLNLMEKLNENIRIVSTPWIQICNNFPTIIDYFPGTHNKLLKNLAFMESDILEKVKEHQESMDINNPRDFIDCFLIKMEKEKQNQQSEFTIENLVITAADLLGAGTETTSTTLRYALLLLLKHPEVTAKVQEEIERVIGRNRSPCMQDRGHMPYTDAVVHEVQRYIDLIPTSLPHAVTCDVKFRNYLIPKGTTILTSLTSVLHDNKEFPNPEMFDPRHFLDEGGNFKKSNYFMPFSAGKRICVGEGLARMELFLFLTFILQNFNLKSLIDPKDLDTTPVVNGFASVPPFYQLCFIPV
Chain of CYP3A4 (P08684 whole entry): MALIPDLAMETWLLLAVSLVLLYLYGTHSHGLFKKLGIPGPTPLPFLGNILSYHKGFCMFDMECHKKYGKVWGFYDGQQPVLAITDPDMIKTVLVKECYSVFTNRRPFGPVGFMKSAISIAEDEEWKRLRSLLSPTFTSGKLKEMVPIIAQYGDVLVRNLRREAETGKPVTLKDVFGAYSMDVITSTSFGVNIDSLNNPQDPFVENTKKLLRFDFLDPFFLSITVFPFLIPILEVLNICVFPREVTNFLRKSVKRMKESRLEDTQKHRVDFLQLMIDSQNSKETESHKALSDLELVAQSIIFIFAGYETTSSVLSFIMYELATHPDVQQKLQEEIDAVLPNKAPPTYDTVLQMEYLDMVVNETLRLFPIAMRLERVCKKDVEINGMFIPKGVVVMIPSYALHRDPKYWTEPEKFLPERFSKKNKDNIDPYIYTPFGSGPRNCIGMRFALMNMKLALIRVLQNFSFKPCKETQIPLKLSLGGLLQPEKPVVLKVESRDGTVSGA
T1 sequence (Q05941 23-502 limits assumed): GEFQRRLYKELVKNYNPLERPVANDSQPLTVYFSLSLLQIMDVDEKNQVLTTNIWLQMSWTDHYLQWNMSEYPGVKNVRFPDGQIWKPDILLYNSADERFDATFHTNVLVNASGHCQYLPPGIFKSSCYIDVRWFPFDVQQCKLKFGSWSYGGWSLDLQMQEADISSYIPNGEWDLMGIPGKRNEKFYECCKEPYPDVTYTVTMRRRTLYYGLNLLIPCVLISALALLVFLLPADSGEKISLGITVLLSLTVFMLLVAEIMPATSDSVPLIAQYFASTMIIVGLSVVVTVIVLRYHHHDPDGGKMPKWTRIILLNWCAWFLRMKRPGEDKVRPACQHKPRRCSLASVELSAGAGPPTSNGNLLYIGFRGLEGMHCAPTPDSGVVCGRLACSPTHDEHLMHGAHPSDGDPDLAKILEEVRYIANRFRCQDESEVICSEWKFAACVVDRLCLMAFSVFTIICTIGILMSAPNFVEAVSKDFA

SMILES	IC50 (CYP1A2; read-out: 1A2 IC50, Protocol 1) [nM]	IC50 (CYP2C19; [5]) [nM]	IC50 (CYP2C9; read-out: 2C9 IC50, Protocol 1) [nM]	IC50 (CYP3A4; [6]) [nM]	IC50 (CYP3A4; [7]) [nM]	% Remaining @ 2 h (Human plasma stability; human, 2 h, 5 μM) [%]	RLM ([1]; rat, microsomes) [mL/min/kg]	HLM ([2]; human, microsomes) [mL/min/kg]	IC50 [4] [nM]	Ki [4] [nM]	IC50 (CYP1A2; read-out: 1A2 IC50, Protocol 2) [nM]	IC50 (CYP2C19; [8]) [nM]	IC50 (CYP2C9; read-out: 2C9 IC50, Protocol 2) [nM]	% Remaining @ 2 h (Human plasma stability; human, 2 h, 1 μM, pH 7.4) [%]	half-life at 1 μM (Human plasma stability; human, pH 7.4) [min]	RLM ([1]; rat, microsomes, pH 7.4) [mL/min/kg]	HLM ([2]; human, microsomes, pH 7.4) [mL/min/kg]	also measured
Cl.O=C(OCC12CCN(CC1)CC2)c1c[nH]c2cc(Cl)c(F)cc12 [Compound 52, Quinuclidin-4-ylmethyl 6-chloro-5-fluoro-1H-indole-3-carboxylate hydrochloride]	> 10000	> 10000	> 10000	> 10000	> 10000	–	–	–	–	–	–	–	–	–	–	–	–	% Remaining @ 2 h (Human plasma stability; Protocol No. 2, 5 μM, 37° C.): 85.8425%; RLM ([1]; Protocol No. 1, rat liver microsomes): 345.506 mL/min/kg; HLM ([2]; Protocol No. 1, human liver microsomes): 4.003 mL/min/kg
Cc1c(OCCO)ccc2[nH]cc(C(=O)OCC34CCN(CC3)CC4)c12 [Compound 95, quinuclidin-4-ylmethyl 5-(2-hydroxyethoxy)-4-methyl-1H-indole-3-carboxylate, 2,2,2-trifluoroacetate salt]	–	–	–	–	–	73.17	17.75	2.86	–	–	–	–	–	–	–	–	–	IC50 [3]: 213 nM; Ki [3]: 414 nM
Cc1cc(F)cc2[nH]cc(C(=O)OCC34CCN(CC3)CC4)c12 [Compound 44, quinuclidin-4-ylmethyl 6-fluoro-4-methyl-1H-indole-3-carboxylate]	> 10000	> 10000	> 10000	> 10000	> 10000	95.72	531.35	3.5	480	412	–	–	–	–	–	–	–	T1/2 (Human plasma stability; human): ∞
Cc1c(F)ccc2[nH]cc(C(=O)OCC34CCN(CC3)CC4)c12 [Compound 43, quinuclidin-4-ylmethyl 5-fluoro-4-methyl-1H-indole-3-carboxylate]	> 10000	> 10000	> 10000	> 10000	> 10000	112.99	469.04	5.57	207	177	–	–	–	–	–	–	–	T1/2 (Human plasma stability; human): ∞
O=C(OCC12CCN(CC1)CC2)c1c[nH]c2ccccc12 [Compound 1, quinuclidin-4-ylmethyl 1H-indole-3-carboxylate]	–	–	–	–	–	–	–	–	31.8	27.6	> 10000	> 10000	> 10000	11	38.5	105.84	<13.608	–
COc1ccc2[nH]cc(C(=O)OCC34CCN(CC3)CC4)c2c1C [Compound 34, quinuclidin-4-ylmethyl 5-methoxy-4-methyl-1H-indole-3-carboxylate]	–	–	–	–	–	–	–	–	23.6	20.4	> 10000	> 10000	> 10000	55	> 120	125.64	<13.608	–
O=C(OCC12CCN(CC1)CC2)c1c[nH]c2ccc(F)cc12 [Compound 12, quinuclidin-4-ylmethyl 5-fluoro-1H-indole-3-carboxylate]	–	–	–	–	–	–	–	–	86.5	75.1	> 10000	> 10000	> 10000	31	73.8	208.73	<13.608	–
COc1ccc2[nH]cc(C(=O)OCC34CCN(CC3)CC4)c2c1 [Compound 18, quinuclidin-4-ylmethyl 5-methoxy-1H-indole-3-carboxylate]	–	–	–	–	–	–	–	–	32.6	28.3	> 10000	> 10000	> 10000	5.8	29.2	47.8757	<13.608	–
